Results on one substance are retold here after patent US9821010B2, “Methods for expansion or depletion of T-regulatory cells” (The General Hospital Corporation, priority 2013, dated 2017).

“Also recorded” adds a separate entry of the source.

Experiment [1] deals with CD25+FOXP3− cell population. The experiment in a line: Overnight incubation of CD4+ cells with IL-2: CD25+FOXP3- cell population. The conditions noted are these: overnight incubation with IL-2. In kind it is cell-based, human. As to the method:
Despite high expression of TNFR2 on Tregs, some TNFR2 expression is also observable on CD4+ T cells that are not true Tregs because they only express intermediate levels of CD25, i.e., CD4^+CD25^mid cells. I therefore studied the impact of overnight incubation on CD25^mid cell subpopulations of IL-2 alone, IL-2 and TNF-α, or IL-2 and TNFR2 agonist, or IL-2 and TNFR2 antagonist. […] However, I observed suppression with IL-2 and TNFR2 antagonist relative to the other three groups.

The test system of experiment [2] is expanded CD4+CD25+ cells. The experiment in a line: Intracellular cytokine production of expanded Tregs after PMA and ionomycin. Type of experiment: cell-based, human. Conditions: PMA and ionomycin 24 hours; Tregs expanded with rapamycin. As to the method:
Expanded CD4^+CD25^+ cells were stimulated with phorbol myristate acetate (PMA) (2 ng/ml) and ionomycin (500 ng/ml) (Sigma) for 24 hours. Monensin (GolgiStop, BD Biosciences) was added for the last 4 hours of incubation. Cells were fixed and permeabilized using Human FOXP3 Buffer Set, followed by staining with fluorochrome-conjugated IFNγ and IL-10 mAbs.
One of the reasons for these Tregs showing high suppression capacity over CD8+ T cells may be due to Tregs lacking the ability to produce IFNγ.

The subject of experiment [3] is freshly isolated human CD4+ cells. The experiment in a line: FOXP3 induction by TNF-α in freshly isolated human CD4+ cells. In kind it is cell-based. How it is done: I cultured freshly isolated human CD4+ cells from 14 human subjects only with TNF-α for 16 hours (FIG. 1B). […] IL-2 is important for Tregs induction and maintenance in mice. […] Thus, the data in FIGS. 1B and 1C confirm that TNF-α […] in vitro.

Where [4] appears, read: co-incubation with IL-2, compared to IL-2 alone.

Regarding TNF-α, the “proportion of CD25hiFOXP3− cells” value in experiment [1] is on record as “rise in the proportion of CD25^hiFOXP3^− cells”; in experiment [1] (listed as TNF), “Significant percentage increases”. For the same substance, the “percentage of IFNγ+ cells / IFNγ production” value in experiment [2] is given as “lowest percentages of IFNγ+ cells”. In addition, the “induction of Tregs (inducible FOXP3)” value in experiment [3] (TNF-α alone, 16 hours, 14 subjects) is on record as “no induction of Tregs; also recorded: does not induce FOXP3”; in experiment [3] (setting [4]), “significant increase in Tregs over IL-2 alone; also recorded: does induce it to higher levels”. Further, in experiment [3] (setting [4]), the “percentage of CD4+CD25hi FOXP3 cells (flow cytometry)” value was “increased the percentage of CD4+CD25^hi FOXP3 cells; also recorded: greater intracellular induction of FOXP3”.
